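Interpolation was linear, between the two tested concentrations surrounding the appropriate level; five concentrations were tested over 48 hours in 96-well plates. TGI denotes the concentration required for complete inhibition of growth.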
Tests used:
Assay in all cases: NCI tumour cell line growth inhibition, 48 h
SK-MEL-28 melanoma = tested on: SK-MEL-28 melanoma
A549 NSCLC = tested on: A549 NSCLC
T-47D breast = tested on: T-47D breast
MDA-MB-435 = tested on: MDA-MB-435
SN12C renal = tested on: SN12C renal
OVCAR-5 ovarian = tested on: OVCAR-5 ovarian
HS 578T breast = tested on: HS 578T breast
NCI-H460 lung = tested on: NCI-H460 lung
MDA-N = tested on: MDA-N
CCRF-CEM leukemia = tested on: CCRF-CEM leukemia
HT29 colon = tested on: HT29 colon
PC-3 prostate = tested on: PC-3 prostate
786-0 renal = tested on: 786-0 renal
RXF 393 renal = tested on: RXF 393 renal
MCF7 breast = tested on: MCF7 breast
TK-10 renal = tested on: TK-10 renal
UO-31 renal = tested on: UO-31 renal
SK-MEL-5 melanoma = tested on: SK-MEL-5 melanoma
EKVX NSCLC = tested on: EKVX NSCLC
HL-60(TB) leukemia = tested on: HL-60(TB) leukemia
A498 renal = tested on: A498 renal
HCT-15 colon = tested on: HCT-15 colon
OVCAR-3 ovarian = tested on: OVCAR-3 ovarian
SF-295 CNS = tested on: SF-295 CNS
SNB-19 CNS = tested on: SNB-19 CNS
SF-268 CNS = tested on: SF-268 CNS
SNB-75 CNS = tested on: SNB-75 CNS
UACC-257 melanoma = tested on: UACC-257 melanoma
OVCAR-8 ovarian = tested on: OVCAR-8 ovarian
SR leukemia = tested on: SR leukemia
HOP-92 NSCLC = tested on: HOP-92 NSCLC
MOLT-4 leukemia = tested on: MOLT-4 leukemia
DU-145 prostate = tested on: DU-145 prostate
SW-620 colon = tested on: SW-620 colon
CAKI-1 renal = tested on: CAKI-1 renal
NCI-H226 lung = tested on: NCI-H226 lung
MDA-MB-231 breast = tested on: MDA-MB-231 breast
HOP-62 NSCLC = tested on: HOP-62 NSCLC
U251 CNS = tested on: U251 CNS
LOX IMVI melanoma = tested on: LOX IMVI melanoma
SK-OV-3 ovarian = tested on: SK-OV-3 ovarian
UACC-62 melanoma = tested on: UACC-62 melanoma
NCI/ADR-RES ovarian = tested on: NCI/ADR-RES ovarian
M14 melanoma = tested on: M14 melanoma
KM12 colon = tested on: KM12 colon
COLO 205 colon = tested on: COLO 205 colon
SF-539 CNS = tested on: SF-539 CNS
NCI-H23 lung = tested on: NCI-H23 lung
ACHN renal = tested on: ACHN renal
HCT-116 colon = tested on: HCT-116 colon
RPMI-8226 leukemia = tested on: RPMI-8226 leukemia
HCC-2998 colon = tested on: HCC-2998 colon
MALME-3M melanoma = tested on: MALME-3M melanoma
K-562 leukemia = tested on: K-562 leukemia
SK-MEL-2 melanoma = tested on: SK-MEL-2 melanoma
IGROV1 ovarian = tested on: IGROV1 ovarian
NCI-H522 lung = tested on: NCI-H522 lung
BT-549 breast = tested on: BT-549 breast

Measured: TGI

Cc1ccc(Nc2n[nH]c(=S)s2)cc1
not listed: SK-MEL-2 melanoma | IGROV1 ovarian | NCI-H522 lung | BT-549 breast
> 100 µM: all other assays above

O=P1(c2ccccc2)c2ccccc2CCc2ccccc21
not listed: T-47D breast | OVCAR-5 ovarian | NCI-H460 lung | HT29 colon | A498 renal | SR leukemia | U251 CNS | NCI/ADR-RES ovarian | ACHN renal | MALME-3M melanoma | K-562 leukemia
> 100 µM: all other assays above

NC(N)=NC(P(=O)(O)O)P(=O)(O)O
not listed: SK-MEL-28 melanoma | T-47D breast | MDA-MB-435 | SN12C renal | CCRF-CEM leukemia | HT29 colon | HL-60(TB) leukemia | A498 renal | SNB-75 CNS | OVCAR-8 ovarian | SR leukemia | HOP-92 NSCLC | MOLT-4 leukemia | SW-620 colon | U251 CNS | RPMI-8226 leukemia | K-562 leukemia | SK-MEL-2 melanoma
> 100 µM: all other assays above

From PubChem BioAssay (NCI)
